# Measurements from patent US8101408B2, “Insecticidal extract from legume plants and method of preparing the same” (Her Majesty the Queen in right of Canada, as represented by …, priority 2005, dated 2012).
# Where “and” joins values, the source holds several entries; their conditions need not be identical. Equal values may be shown once. Entries after “also recorded” stand apart in the source; their conditions may differ. Read-outs that look alike come from different tables or passages of the source.
# Columns and labels:
# Sitophilus oryzae [1] = assay: Flour disk antifeedant bioassay with rice weevils (food consumption as % of control; EC50/EC90 for feeding reduction); type: in vivo; details: for food consumption, peptide to saponin treatment ratio 1:1 / food consumption, peptide to saponin treatment ratio 9:1 / food consumption, peptide to saponin treatment ratio 1:9: peptide source AIEX YM3; for synergy with pea peptides (in words): single dose tests, pea peptide to saponin treatment ratios of 9:1, 1:1 and 1:9; for food consumption, initial treatment: Table 20, saponin alone; for antifeedant activity (in words): rice weevil flour disk bioassay; for EC90 (%) to reduce feeding by 90%: three days on treated wafers
# Experimental: The bioactivity of separated fractions was determined primarily by a flour disk antifeedant bioassay with the rice weevil (Sitophilus oryzae), an insect pest of stored products.
# A glass column (1.2 cm internal diameter×20.5 cm length) equipped with a solvent reservoir and stopcock was filled with silica gel (Mallinckrodt SilicAR cc-7) using a slurry of the silica gel in chloroform (Merck OmniSolv containing 1% ethanol). The top of the bed was protected with sea sand. C8 powder (130 mg) was applied to the column, after mixing with silica gel, as a 1.25 cm band. Using a slight positive air pressure to maintain reasonable flow rates, the column was eluted with chloroform (75 ml) then with 75 ml volumes of various mixtures of chloroform and methanol followed by pure methanol (Table 1). The column was eluted with more methanol (75 ml) and finally with two additional volumes of methanol (250 ml each). […] A final evaporation was performed with a Savant apparatus (43° C.). The tubes were re-weighed, capped and transferred to the bioassay laboratory. Each sample was dissolved in 70% ethanol (0.5 ml) and 0.2 ml of that solution was added to the wheat flour (200 mg) for preparation of the disks. […] Control disks were prepared with 0.2 ml of 70% ethanol.
# A test insecticidal compound is incorporated into flour disks. […] A typical dose in many of the above examples is 1.6 milligram/200 milligram flour. Wheat flour is typically used.
# (§1) Reduction in feeding activity elicited by the experimental samples was compared to food consumption of untreated controls, obtained by weighing the disks before and after exposure to insects and expressed as percent feeding relative to the control. Bioassay can also include insecticidal measurements (lethality with rice weevil).
# (§2) Flour disks (ca. 0.1 g/disk) were weighed before and after exposure to the insects. […] Antifeedant activity was determined by expressing consumption of treated disks as a percentage of control disks (70% ethanol). Positive controls using the same C8 extract were run with each bioassay.
# The estimate and confidence limits are the values of X where the line Y=Yo crosses the regression line and its upper and lower confidence curves, respectively. The formulae can be expressed in terms of outputs from the regression analysis. Let a and b be the estimates of the intercept and slope, MSE the mean square error, n the number of observations, t the (2-sided) critical value of t with n−2 degrees of freedom, V(b) the variance (standard error squared) of b and D=b^2−t^2V(b)). Then the estimate of X is Xo=(Yo−a)/b and the confidence limits for X are X0+t^2V(b)(Y0− Y)/bD±H where H^2=t^2└D·MSE/n+V(b)(Y0− Y)^2┘/D^2. The interval is not symmetric about Xo. […]
# Sitophilus oryzae [2] = type: in vivo; details: for Mean survival time (days ± SE) / LD90 (%): saponin:peptide ratio 1:0; for LD90 (%): held three days on treated wafers, at 7 days; for mortality / toxicity to the rice weevil (in words): used alone
# Experimental: as §1, §2
# Probit analysis (Polo-PC, LeOra Software, Berkeley, Calif., U.S.A.) was used to estimate the concentrations required to kill 50 and 90% of the population after seven days. For the experiments that used a single dose, the mean survival time was estimated using Kaplan-Meier survival analysis (SigmaStat 3.0, SPSS Inc, Chicago, Ill., U.S.A.).
# [3] = target: calcium-dependent potassium channels (Homo sapiens, UniProt Q12791); details: mammalian in vitro experiments (McManus et al.); cited from earlier work
# calcium-dependent potassium channels, sequence (Q12791 whole entry): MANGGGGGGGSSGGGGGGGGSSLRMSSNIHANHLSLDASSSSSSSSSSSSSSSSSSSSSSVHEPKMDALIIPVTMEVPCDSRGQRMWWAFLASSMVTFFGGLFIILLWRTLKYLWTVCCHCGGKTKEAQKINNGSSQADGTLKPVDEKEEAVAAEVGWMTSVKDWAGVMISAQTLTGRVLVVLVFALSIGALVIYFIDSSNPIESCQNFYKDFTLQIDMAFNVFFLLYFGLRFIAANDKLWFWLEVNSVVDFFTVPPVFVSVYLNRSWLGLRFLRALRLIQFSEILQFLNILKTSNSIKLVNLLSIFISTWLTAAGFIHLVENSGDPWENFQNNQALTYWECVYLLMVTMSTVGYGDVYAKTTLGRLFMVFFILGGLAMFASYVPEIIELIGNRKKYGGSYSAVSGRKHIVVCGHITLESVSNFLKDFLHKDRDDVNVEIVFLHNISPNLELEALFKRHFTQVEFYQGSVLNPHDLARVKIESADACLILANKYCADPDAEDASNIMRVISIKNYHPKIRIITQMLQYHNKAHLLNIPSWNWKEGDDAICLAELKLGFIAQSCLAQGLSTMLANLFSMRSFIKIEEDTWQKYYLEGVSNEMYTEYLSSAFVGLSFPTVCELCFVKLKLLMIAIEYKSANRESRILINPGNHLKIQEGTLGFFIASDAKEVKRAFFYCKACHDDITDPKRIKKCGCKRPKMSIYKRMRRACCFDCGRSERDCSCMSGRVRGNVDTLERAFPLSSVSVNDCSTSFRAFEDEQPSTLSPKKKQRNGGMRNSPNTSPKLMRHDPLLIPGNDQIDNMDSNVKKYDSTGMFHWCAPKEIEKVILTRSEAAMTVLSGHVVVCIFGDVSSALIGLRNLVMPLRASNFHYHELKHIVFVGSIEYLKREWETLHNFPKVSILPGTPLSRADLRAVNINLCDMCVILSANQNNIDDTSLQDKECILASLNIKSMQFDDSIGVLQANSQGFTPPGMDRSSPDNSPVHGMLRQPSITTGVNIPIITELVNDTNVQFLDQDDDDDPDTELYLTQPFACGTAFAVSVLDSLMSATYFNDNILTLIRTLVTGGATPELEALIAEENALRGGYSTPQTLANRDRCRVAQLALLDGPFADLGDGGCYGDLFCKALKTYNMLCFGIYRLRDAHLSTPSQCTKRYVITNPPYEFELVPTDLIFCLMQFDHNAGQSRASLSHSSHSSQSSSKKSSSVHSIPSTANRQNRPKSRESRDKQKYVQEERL
# calcium-dependent potassium channels, sequence (Q16558 whole entry partner): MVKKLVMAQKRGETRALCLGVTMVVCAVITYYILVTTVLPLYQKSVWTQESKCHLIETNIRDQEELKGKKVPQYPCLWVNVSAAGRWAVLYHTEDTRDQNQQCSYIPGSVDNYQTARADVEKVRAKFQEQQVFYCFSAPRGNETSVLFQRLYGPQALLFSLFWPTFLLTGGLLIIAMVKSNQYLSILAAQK
# Sitophilus oryzae [4] = details: sample from a Japanese scientist; Bodnaryk et al., U.S. Pat. No. 5,955,082; cited from earlier work
# [5] = C8 material as peptide source, total dose 1.6 mg/200 mg of flour (D-I: 0.8 mg/100 mg)
# [6] = total dose 1.6 mg/200 mg of flour (D-I: 0.8 mg/100 mg)
# [7] = total dose 1.6 mg/200 mg of flour
# [8] = saponin:peptide ratio 1:0 (saponin or soap alone), concentration 0.8%
# [9] = C8 material as peptide source, total dose 1.6 mg/200 mg of flour
# [10] = separate experiment, different batch of C8 material as peptide source, total dose 1.6 mg/200 mg of flour
compound,measurement,setting,value
"C[C@@H]1O[C@@H](O[C@H]2[C@H](O[C@H]3[C@H](O[C@H]4CC[C@@]5(C)[C@@H](CC[C@]6(C)[C@@H]5CC=C5[C@@H]7CC(C)(C)CC(=O)[C@]7(C)CC[C@]56C)[C@@]4(C)CO)O[C@H](C(=O)O)[C@@H](O)[C@@H]3O)O[C@H](CO)[C@H](O)[C@@H]2O)[C@H](O)[C@H](O)[C@H]1O [Dehydrosoyasaponin I, dehydrosoyasaponin I]","food consumption, peptide to saponin treatment ratio 9:1 (values in brackets)",Sitophilus oryzae [1]; [5],(17) % of control
same,food consumption in the rice weevil bioassay,"Sitophilus oryzae [1]; RPC isolate, […]100 mg of flour (equivalent to 1.28 mg/200 mg)",65%
same,"food consumption, peptide to saponin treatment ratio 1:1",Sitophilus oryzae [1]; [6],34 % of control
same,"food consumption, peptide to saponin treatment ratio 9:1",Sitophilus oryzae [1]; [6],32 % of control
same,Feeding as a percent of control (%),"Sitophilus oryzae [1]; saponin:peptide ratio 1:0, 0.6% used in this test",65%
same,synergy with pea peptides (in words),Sitophilus oryzae [1],clearly synergistic
same,Mean survival time (days ± SE),Sitophilus oryzae [2]; 0.6% used in this test,13.8 ± 0.2 a days
same,action on calcium-dependent potassium channels (in words),[3],high-affinity activator
same,potency as a potassium channel opener relative to S-I,[3],60 fold
"CC1(C)[C@@H](O[C@H]2O[C@H](C(=O)O)[C@@H](O)[C@H](O)[C@H]2O[C@@H]2O[C@H](C(=O)O)[C@@H](O)[C@H](O)[C@H]2O)CC[C@]2(C)[C@H]3C(=O)C=C4[C@@H]5C[C@@](C)(C(=O)O)CC[C@]5(C)CC[C@@]4(C)[C@]3(C)CC[C@@H]12 [Glycyrrhizic acid, glycyrrhizic acid]","food consumption, initial treatment",Sitophilus oryzae [1]; 1.6 mg/200 mg of flour,96 % of control
same,"food consumption, peptide to saponin treatment ratio 1:9",Sitophilus oryzae [1]; [7],39 % of control
same,"food consumption, peptide to saponin treatment ratio 1:1",Sitophilus oryzae [1]; [6],45 % of control
same,"food consumption, peptide to saponin treatment ratio 9:1",Sitophilus oryzae [1]; [6],33 % of control
same,antifeedant activity (in words),Sitophilus oryzae [1],inactive; also recorded: no significant reduction in feeding
same,Feeding as a percent of control (%),Sitophilus oryzae [1]; [8],96%
same,synergy with pea peptides (in words),Sitophilus oryzae [1],clearly synergistic
"C[C@@H]1O[C@@H](O[C@H]2[C@H](O[C@H]3CC[C@@]4(C)[C@@H](CC[C@]5(C)[C@@H]4CC=C4[C@@H]6CC(C)(C)CC[C@]6(C(=O)O[C@@H]6O[C@H](CO[C@@H]7O[C@H](CO)[C@@H](O[C@@H]8O[C@@H](C)[C@H](O)[C@@H](O)[C@H]8O)[C@H](O)[C@H]7O)[C@@H](O)[C@H](O)[C@H]6O)CC[C@]45C)[C@]3(C)CO)OC[C@H](O)[C@@H]2O)[C@H](O)[C@H](O)[C@H]1O [Hederacoside C, hederacoside C]","food consumption, initial treatment",Sitophilus oryzae [1]; 1.6 mg/200 mg of flour,117 % of control
same,"food consumption, peptide to saponin treatment ratio 1:9",Sitophilus oryzae [1]; [7],58 % of control
same,"food consumption, peptide to saponin treatment ratio 1:1",Sitophilus oryzae [1]; [6],47 % of control
same,"food consumption, peptide to saponin treatment ratio 9:1",Sitophilus oryzae [1]; [6],44 % of control
same,antifeedant activity (in words),Sitophilus oryzae [1],inactive
same,antifeedant activity (in words),Sitophilus oryzae [1]; listed as hederacoside C,no significant reduction in feeding
same,Feeding as a percent of control (%),Sitophilus oryzae [1]; [8],117%
same,synergy with pea peptides (in words),Sitophilus oryzae [1],clearly synergistic
same,Mean survival time (days ± SE),"Sitophilus oryzae [2]; 0.8%, Kaplan-Meier",13.9 a days
CCCCCCCCCCCCCCCC(=O)OC[C@@H](O)COP(=O)([O-])OCC[N+](C)(C)C [L-16:0],food consumption in the rice weevil bioassay,"Sitophilus oryzae [1]; 1.6 mg/200 mg flour, relative to control",102%
same,food consumption,"Sitophilus oryzae [1]; lysolecithin-saponin (soyasaponin I) mixtures, similar experiments, total dose 0.016-1.6 mg/200 mg of flour",84-102%
same,"food consumption, expressed as % of untreated control","Sitophilus oryzae [1]; mixtures of 90% lysolecithin and 10% peptides (AIEX YM3), total dose 0.016-1.6 mg/200 mg of flour",71-115%
"C[C@@H]1O[C@@H](O[C@H]2[C@H](O[C@H]3[C@H](O[C@H]4CC[C@@]5(C)[C@@H](CC[C@]6(C)[C@@H]5CC=C5[C@@H]7CC(C)(C)C[C@@H](O)[C@]7(C)CC[C@]56C)[C@@]4(C)CO)O[C@H](C(=O)O)[C@@H](O)[C@@H]3O)O[C@H](CO)[C@H](O)[C@@H]2O)[C@H](O)[C@H](O)[C@H]1O [Soyasaponin I, soyasaponin I]",activity in the rice weevil bioassays (in words),Sitophilus oryzae [4],nearly inactive
same,"food consumption, peptide to saponin treatment ratio 1:1 (values in brackets)",Sitophilus oryzae [1]; [9],(27) % of control
same,"food consumption, peptide to saponin treatment ratio 1:9 (values in brackets)",Sitophilus oryzae [1]; [9],(26) % of control
same,"food consumption, peptide to saponin treatment ratio 9:1 (values in brackets)",Sitophilus oryzae [1]; [5],(29) % of control
same,food consumption in the rice weevil bioassay,"Sitophilus oryzae [1]; RPC isolate, 0.43 mg dose, disks from one-half the usual amount of flour (100 mg)",100%
same,food consumption (% of control),"Sitophilus oryzae [1]; Table 3, dose 1.6 mg/200 mg flour, listed as soyasaponin I (free acid)",83 % of control and 114 % of control
same,"food consumption, initial treatment",Sitophilus oryzae [1]; 1.6 mg/200 mg of flour,98 % of control
same,"feeding, % of the control","Sitophilus oryzae [1]; highest concentration tested, 12.8%",75 % of the control
same,"food consumption, peptide to saponin treatment ratio 1:9",Sitophilus oryzae [1]; [7],16 % of control
same,"food consumption, peptide to saponin treatment ratio 1:1",Sitophilus oryzae [1]; [6],23 % of control
same,"food consumption, peptide to saponin treatment ratio 9:1",Sitophilus oryzae [1]; [6],24 % of control
same,antifeedant activity (in words),Sitophilus oryzae [1],inactive; also recorded: no significant reduction in feeding
same,Feeding as a percent of control (%),Sitophilus oryzae [1]; [8],92% and 98%
same,EC90 (%) to reduce feeding by 90%,Sitophilus oryzae [1]; saponin:peptide ratio 1:0,>>12 ^ %
same,"food consumption, peptide to saponin treatment ratio 1:1 (values in brackets)",Sitophilus oryzae [1]; [10],(33)^7 % of control
same,"food consumption, peptide to saponin treatment ratio 1:9 (values in brackets)",Sitophilus oryzae [1]; [10],(42)^7 % of control
same,"food consumption, peptide to saponin treatment ratio 9:1 (values in brackets)",Sitophilus oryzae [1]; [10],(44)^7 % of control
same,Mean survival time (days ± SE),"Sitophilus oryzae [2]; 0.8%, Kaplan-Meier",13.8 a days
same,LD90 (%),Sitophilus oryzae [2],>>12 ^ %
same,mortality / toxicity to the rice weevil (in words),Sitophilus oryzae [2],no mortality
same,mortality / toxicity to the rice weevil (in words),Sitophilus oryzae [2]; listed as soyasaponin I,no increase in mortality
"CCCCCCCCCCCC(=O)OCCOCCOCCOCCOCCOCCOCCOCCOCCOCCOCCOCCOCCOCCOCCOCCOCCOCCOCCOCCOCC(OCCOCCOCCOCCOCCOCCOCCOCCOCCOCCOCCOCCOCCOCCOCCOCCOCCOCCOCCOCCO)C1OCC(OCCOCCOCCOCCOCCOCCOCCOCCOCCOCCOCCOCCOCCOCCOCCOCCOCCOCCOCCOCCO)C1OCCOCCOCCOCCOCCOCCOCCOCCOCCOCCOCCOCCOCCOCCOCCOCCOCCOCCOCCOCCO (stereo not drawn) [Tween 20, polyoxyethylene(20)sorbitan monolaurate]",Feeding as a percent of control (%),Sitophilus oryzae [1]; [8],106%
same,Mean survival time (days ± SE),"Sitophilus oryzae [2]; 0.8%, Kaplan-Meier",13.7 a days
same,mortality / toxicity to the rice weevil (in words),Sitophilus oryzae [2],Neither Tween or dish soap were toxic
"Cc1occc(=O)c1O [maltol, 3-hydroxy-2-methyl-4-pyrone]",f.c. (food consumption),"Sitophilus oryzae [1]; Table 4, 1.6 mg/200 mg of flour",110 % of control
same,antifeedant activity (in words),Sitophilus oryzae [1],inactive
"C[C@@H]1O[C@@H](O[C@H]2[C@H](O[C@H]3CC[C@@]4(C)[C@@H](CC[C@]5(C)[C@@H]4CC=C4[C@@H]6CC(C)(C)CC[C@]6(C(=O)O)CC[C@]45C)[C@]3(C)CO)OC[C@H](O)[C@@H]2O)[C@H](O)[C@H](O)[C@H]1O [α-Hederin, α-hederin]","food consumption, initial treatment",Sitophilus oryzae [1]; 1.6 mg/200 mg of flour,36 % of control
same,"food consumption, peptide to saponin treatment ratio 1:9",Sitophilus oryzae [1]; [7],26 % of control
same,"food consumption, peptide to saponin treatment ratio 1:1",Sitophilus oryzae [1]; [6],26 % of control
same,"food consumption, peptide to saponin treatment ratio 9:1",Sitophilus oryzae [1]; [6],24 % of control
same,Feeding as a percent of control (%),Sitophilus oryzae [1]; [8],36%
β-escin,"food consumption, peptide to saponin treatment ratio 1:1 (values in brackets)",Sitophilus oryzae [1]; [9],(15) % of control
same,"food consumption, peptide to saponin treatment ratio 1:9 (values in brackets)",Sitophilus oryzae [1]; [9],(16) % of control
same,"food consumption, peptide to saponin treatment ratio 9:1 (values in brackets)",Sitophilus oryzae [1]; [5],(14) % of control
same,"food consumption, peptide to saponin treatment ratio 1:9",Sitophilus oryzae [1]; [7],18 % of control
same,"food consumption, peptide to saponin treatment ratio 1:1",Sitophilus oryzae [1]; [6],17 % of control
same,"food consumption, peptide to saponin treatment ratio 9:1",Sitophilus oryzae [1]; [6],17 % of control
same,Feeding as a percent of control (%),Sitophilus oryzae [1]; [8],18% and 30%
same,EC90 (%) to reduce feeding by 90%,Sitophilus oryzae [1]; saponin:peptide ratio 1:0,1.5%
same,Mean survival time (days ± SE),"Sitophilus oryzae [2]; 0.8%, Kaplan-Meier",6.3 ± 0.2 a days
same,LD90 (%),Sitophilus oryzae [2],1.74%
